Data from the supplement of paper PMC8882468.

Key:
Experiment in all cases: CTG-3D luminescence at 96 h relative to day-0 seeding control (ratio to day 0); higher = more growth / less cytotoxicity
HCI-008 = tested on: HCI-008 (organoid from a HER2-enriched breast cancer xenograft)
Procedure: (§1)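 PDX-derived breast cancer organoids (PDxO) in 384-well Matrigel plates, 8-point dose (0.000000625-100 uM), 96 h at 37 C; CellTiter-Glo 3D luminescence normalised to the day-0 seeding control (mean of 4 technical replicates over mean of 4 day-0 wells).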

HCI-015 = tested on: HCI-015 (organoid from a triple-negative breast cancer xenograft)
Procedure: as §1

HCI-019 = tested on: HCI-019 (organoid from a triple-negative breast cancer xenograft)
Procedure: as §1

HCI-005.E2 = tested on: HCI-005.E2 (organoid from a breast cancer xenograft with a HER2-positive history)
Procedure: as §1

O=c1[nH]cc(F)c(=O)[nH]1 [5-fluorouracil]
CTG-3D luminescence at 96 h
Settings | 12.5 pM | 0.00025 µM | 0.005 µM | 0.1 µM | 1 µM | 10 µM | 100 µM | 625 fM
HCI-008, days in culture: 228 | 1.95 | 2.08 | 1.74 | 1.52 | 1.51 | 1.51 | 0.917 | 1.88
HCI-008, days in culture: 244 | 1.38 | 1.81 | 2.06 | 1.88 | 1.6 | 1.53 | 1.03 | 2.2
HCI-015, days in culture: 172 | 2.81 | 2 | 2.42 | 1.81 | 1.61 | 1.12 | 1.03 | 2.72
HCI-015, days in culture: 191 | 2.43 | 1.43 | 1.71 | 0.853 | 1.35 | 0.995 | 0.865 | 1.37
HCI-015, days in culture: 218 | 1.85 | 1.55 | 1.83 | 1.77 | 1.51 | 1.54 | 0.999 | 1.81
HCI-019, days in culture: 110 | 2.01 | 1.66 | 1.28 | 2.55 | 1.05 | 2.15 | 1.45 | 2.02
HCI-019, days in culture: 131 | 2.46 | 3.61 | 3.38 | 4.08 | 2.65 | 2.93 | 1.89 | 3.71
HCI-019, days in culture: 152 | 2.48 | 2.79 | 2.59 | 1.85 | 1.99 | 2.54 | 1.96 | 2.62

HCI-005.E2
Settings | CTG-3D luminescence at 96 h
12.5 pM | 1.91
0.00025 µM | 1.66
0.005 µM | 1.64
0.1 µM | 2.48
